The target of one test is Tryptase (Homo sapiens, UniProt Q9BZJ3+Q15661+Q9NRR2). Description: Inhibitory activity against human tryptase.
The target in test [1] is T1, Serine protease 1 (Bos taurus, UniProt P00760).
T1 sequence (P00760 whole entry): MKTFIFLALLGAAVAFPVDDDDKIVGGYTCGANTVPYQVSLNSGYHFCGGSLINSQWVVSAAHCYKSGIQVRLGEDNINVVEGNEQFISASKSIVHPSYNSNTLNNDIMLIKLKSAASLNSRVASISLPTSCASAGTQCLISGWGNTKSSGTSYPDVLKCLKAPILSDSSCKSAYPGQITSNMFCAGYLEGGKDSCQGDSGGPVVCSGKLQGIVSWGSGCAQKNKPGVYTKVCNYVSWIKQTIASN
Put plainly: Inhibitory activity against bovine trypsin.

Test [2] has as its target T2, Serine protease 1 (Bos taurus) (UniProt P00760).
T2 sequence (whole entry): T1 sequence (P00760 whole entry)
Description: Inhibition of bovine trypsin at 0.2 uM.

The next test addresses Plasminogen (Rattus norvegicus, UniProt Q01177). Description: Inhibitory activity against plasmin.
Test [3] concerns the target Tissue-type plasminogen activator (Homo sapiens, UniProt P00750). Put plainly: Inhibitory activity against tissue type plasminogen activator.
Test [4] has as its target Serine protease 1 (Homo sapiens, UniProt P07477). Description: Inhibitory activity against trypsin.

Bounds are passed on as bounds.

Serine protease 1 (Homo sapiens, UniProt P07477), sequence (P07477 whole entry): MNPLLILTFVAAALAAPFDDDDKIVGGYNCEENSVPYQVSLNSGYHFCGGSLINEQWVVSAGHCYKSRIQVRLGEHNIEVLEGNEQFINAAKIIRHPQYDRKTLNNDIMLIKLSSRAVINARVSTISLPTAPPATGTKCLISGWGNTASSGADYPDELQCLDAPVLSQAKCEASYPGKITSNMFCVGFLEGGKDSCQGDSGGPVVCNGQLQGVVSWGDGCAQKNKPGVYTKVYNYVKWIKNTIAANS
Tissue-type plasminogen activator, sequence (P00750 whole entry): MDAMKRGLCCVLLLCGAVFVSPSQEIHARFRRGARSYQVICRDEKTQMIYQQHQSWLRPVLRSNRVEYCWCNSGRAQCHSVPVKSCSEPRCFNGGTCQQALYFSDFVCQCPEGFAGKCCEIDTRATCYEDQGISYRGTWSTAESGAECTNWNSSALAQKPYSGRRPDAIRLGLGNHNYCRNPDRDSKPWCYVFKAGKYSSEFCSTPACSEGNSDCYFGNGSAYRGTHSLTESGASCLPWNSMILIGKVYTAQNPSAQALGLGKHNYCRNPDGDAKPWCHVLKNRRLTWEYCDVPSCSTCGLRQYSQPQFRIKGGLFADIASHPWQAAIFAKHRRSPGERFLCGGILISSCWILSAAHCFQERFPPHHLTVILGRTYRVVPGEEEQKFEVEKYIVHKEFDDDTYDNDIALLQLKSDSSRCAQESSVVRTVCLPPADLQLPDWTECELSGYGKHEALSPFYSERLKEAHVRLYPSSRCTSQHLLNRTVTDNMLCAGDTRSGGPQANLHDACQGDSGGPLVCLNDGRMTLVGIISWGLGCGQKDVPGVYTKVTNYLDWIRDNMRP
Plasminogen, sequence (Q01177 97-581 limits assumed): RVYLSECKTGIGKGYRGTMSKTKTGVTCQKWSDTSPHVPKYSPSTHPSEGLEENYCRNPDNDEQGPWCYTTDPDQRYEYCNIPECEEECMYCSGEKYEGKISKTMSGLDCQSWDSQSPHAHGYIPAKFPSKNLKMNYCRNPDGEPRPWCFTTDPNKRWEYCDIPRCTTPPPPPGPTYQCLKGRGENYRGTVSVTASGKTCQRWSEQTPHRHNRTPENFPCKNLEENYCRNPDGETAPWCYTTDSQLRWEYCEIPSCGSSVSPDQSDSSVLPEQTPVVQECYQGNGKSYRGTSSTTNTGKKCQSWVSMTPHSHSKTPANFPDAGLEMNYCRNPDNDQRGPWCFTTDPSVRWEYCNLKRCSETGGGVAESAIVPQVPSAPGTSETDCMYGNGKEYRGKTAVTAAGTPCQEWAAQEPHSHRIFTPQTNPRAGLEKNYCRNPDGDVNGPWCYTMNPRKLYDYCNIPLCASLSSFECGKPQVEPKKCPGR
Plasminogen, sequence (Q01177 582-812 limits assumed): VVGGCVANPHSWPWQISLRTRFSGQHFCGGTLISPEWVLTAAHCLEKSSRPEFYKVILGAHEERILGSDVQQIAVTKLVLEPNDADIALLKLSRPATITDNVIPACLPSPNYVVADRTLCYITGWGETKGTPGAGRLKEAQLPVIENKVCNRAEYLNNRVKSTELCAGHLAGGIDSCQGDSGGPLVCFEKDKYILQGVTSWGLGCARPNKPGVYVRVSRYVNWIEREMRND

`N=C(N)N1CCC[C@H](C[C@H]2C(=O)N(C(=O)N3CCN(C(=O)CCCCCc4ccccc4)CC3)[C@@H]2C(=O)O)C1`: the figures for the concentration for half-maximal inhibition (IC50) against Tryptase and on Serine protease 1 [1] were 1.7 nM and 5760 nM, respectively.
Regarding `CC(=O)Nc1ccsc1C(=O)N1CCN(C(=O)N2C(=O)[C@H](CC3CCNCC3)C2C(=O)O)CC1` (single isomer, unassigned), on Tryptase, the IC50 (as a rule, the concentration that gives 50% inhibition) stood at 190 nM. The inhibition (commonly the percentage by which the read-out fell short of the control) in test [2] is 68%.
With `O=C(O)C1[C@@H](CC2CCNCC2)C(=O)N1C(=O)N1CCN(C(=O)Cc2ccc(Oc3ccccc3)cc2)CC1` (single isomer, unassigned), the values for the IC50 against Tryptase and against Serine protease 1 [1] were 5 nM and 950 nM, respectively.
On Tryptase, `O=C(O)C1[C@@H](CC2CCNCC2)C(=O)N1C(=O)N1CCN(C(=O)Cc2ccc3c(c2)CCCC3)CC1` (single isomer, unassigned) showed an IC50 of 30 nM. For the same compound, the inhibition in test [2] was found to be 18%.
With `O=C(O)C1[C@@H](CC2CCNCC2)C(=O)N1C(=O)N1CCN(C(=O)CCCCCc2ccc3ccccc3c2)CC1` (single isomer, unassigned), the IC50 against Tryptase worked out at 1 nM; at Serine protease 1 [1], 320 nM.
For `COc1cccc(CCC(=O)N2CCN(C(=O)N3C(=O)[C@H](CC4CCNCC4)C3C(=O)O)CC2)c1` (single isomer, unassigned), the IC50 at Tryptase is 14 nM; against Serine protease 1 [1], 810 nM.
For `O=C(O)C1[C@@H](CC2CCNCC2)C(=O)N1C(=O)N1CCN(C(=O)Cc2cccc(Oc3ccccc3)c2)CC1` (single isomer, unassigned) the same measures were 17 nM and 970 nM.
For `O=C(O)C1[C@@H](CC2CCNCC2)C(=O)N1C(=O)N1CCN(C(=O)CCCCc2ccccc2)CC1` (single isomer, unassigned) the same measures were 6 nM and 810 nM.
The compound `O=C(O)C1[C@@H](CC2CCNCC2)C(=O)N1C(=O)N1CCN(C(=O)c2ccccc2-c2ccccc2)CC1` (single isomer, unassigned) displayed an IC50 against Tryptase of 42 nM. Also, in test [2], the inhibition stood at 46%.
On the same counts, the results for `O=C(O)C1[C@@H](CC2CCNCC2)C(=O)N1C(=O)N1CCN(C(=O)c2cc3ccccc3o2)CC1` (single isomer, unassigned) are 21 nM and 89%.
For `Cc1onc(-c2ccccc2)c1C(=O)N1CCN(C(=O)N2C(=O)[C@H](CC3CCNCC3)C2C(=O)O)CC1` (single isomer, unassigned) the same measures were 290 nM and 31%.
For `O=C(O)C1[C@@H](CC2CCNCC2)C(=O)N1C(=O)N1CCN(C(=O)c2ccccc2CCc2ccccc2)CC1` (single isomer, unassigned) the same measures were 140 nM and 60%.
`O=C(O)C1[C@@H](CC2CCNCC2)C(=O)N1C(=O)N1CCN(C(=O)CCCCCCc2ccccc2)CC1` (single isomer, unassigned): the IC50 was 5 nM on Tryptase and 1300 nM against Serine protease 1 [1].
At Tryptase, `CC1=NN(c2ccc(C(=O)N3CCN(C(=O)N4C(=O)[C@H](CC5CCNCC5)C4C(=O)O)CC3)cc2)C(=O)C1` (single isomer, unassigned) showed an IC50 of 380 nM. The inhibition in test [2] is 91%.
For `O=C(O)C1[C@@H](CC2CCNCC2)C(=O)N1C(=O)N1CCN(C(=O)CCCC2CCCCC2)CC1` (single isomer, unassigned) the same measures were 24 nM and 40%.
For `O=C(O)C1[C@@H](CC2CCNCC2)C(=O)N1C(=O)N1CCN(C(=O)c2cccc(Oc3ccccc3)c2)CC1` (single isomer, unassigned) the same measures were 15 nM and 78%.
For `Cc1cccc(CCC(=O)N2CCN(C(=O)N3C(=O)[C@H](CC4CCNCC4)C3C(=O)O)CC2)c1` (single isomer, unassigned), the values for the IC50 on Tryptase and at Serine protease 1 [1] were 13 nM and 1200 nM, respectively.
In the case of `O=C(O)C1[C@@H](CC2CCNCC2)C(=O)N1C(=O)N1CCN(C(=O)c2ccc(Oc3ccccc3)cc2)CC1` (single isomer, unassigned), the figures for the 50% inhibitory concentration (IC50) against Tryptase and against Serine protease 1 [1] were 7 nM and 140 nM, respectively.
For `O=C(NCCCC(=O)N1CCN(C(=O)N2C(=O)[C@H](CC3CCNCC3)C2C(=O)O)CC1)OCc1ccccc1` (single isomer, unassigned) the same measures were 6 nM and 1200 nM.
For `Cc1ccc(C2=CN=C(CCC(=O)N3CCN(C(=O)N4C(=O)[C@H](CC5CCNCC5)C4C(=O)O)CC3)C2=O)cc1` (single isomer, unassigned) the same measures were 5 nM and 1800 nM.
On the same counts, the results for `O=C(O)C1[C@@H](CC2CCNCC2)C(=O)N1C(=O)N1CCN(C(=O)CCCCCCCc2ccccc2)CC1` (single isomer, unassigned) are 5 nM and 1300 nM.
For `O=C(CCC(=O)N1CCN(C(=O)N2C(=O)[C@H](CC3CCNCC3)C2C(=O)O)CC1)NCCc1ccccc1` (single isomer, unassigned), the IC50 against Tryptase is 17 nM; against Serine protease 1 [1] it was 1900 nM.
Turning to `O=C1CC[C@@H](C(=O)N2CCN(C(=O)N3C(=O)[C@H](CC4CCNCC4)C3C(=O)O)CC2)N1` (single isomer, unassigned), the IC50 at Tryptase was determined as 170 nM. In test [2], this compound registered an inhibition of 69%.
With `O=C(O)C1[C@@H](CC2CCNCC2)C(=O)N1C(=O)N1CCN(C(=O)c2ccc(CCCc3ccccc3)cc2)CC1` (single isomer, unassigned), the IC50 at Tryptase came out at 6 nM; against Serine protease 1 [1], 310 nM.
For `O=C(O)C1[C@@H](CC2CCNCC2)C(=O)N1C(=O)N1CCN(C(=O)CCCc2ccc3ccccc3c2)CC1` (single isomer, unassigned) the same measures were 10 nM and 600 nM.
On the same counts, the results for `O=C(O)C1[C@@H](CC2CCNCC2)C(=O)N1C(=O)N1CCN(C(=O)CCCc2nc(-c3ccc(Cl)cc3)no2)CC1` (single isomer, unassigned) are 5 nM and 150 nM.
On the same counts, the results for `O=C(O)C1[C@@H](CC2CCNCC2)C(=O)N1C(=O)N1CCN(C(=O)c2ccc(OCc3ccccc3)cc2)CC1` (single isomer, unassigned) are 4 nM and 120 nM.
With `O=C(CCCC(=O)N1CCN(C(=O)N2C(=O)[C@H](CC3CCNCC3)C2C(=O)O)CC1)Nc1ccccc1` (single isomer, unassigned), the IC50 worked out at 12 nM against Tryptase and 1350 nM against Serine protease 1 [1].
As for `CC(C)(C)NC(=O)N1CCN(C(=O)N2C(=O)[C@H](CCCN=C(N)N)C2C(=O)O)CC1` (single isomer, unassigned), the IC50 is 430 nM against Plasminogen, above 8250 nM in test [3], 72 nM against Serine protease 1 [1] and 4.5 nM against Serine protease 1 [4].
For `O=C(O)C1[C@@H](CC2CCNCC2)C(=O)N1C(=O)N1CCN(C(=O)Cc2ccc(-c3ccccc3)cc2)CC1` (single isomer, unassigned), the IC50 came out at 5 nM on Tryptase and 740 nM against Serine protease 1 [1].
`O=C(O)C1[C@@H](CC2CCNCC2)C(=O)N1C(=O)N1CCN(C(=O)c2cc3cc(F)ccc3[nH]2)CC1` (single isomer, unassigned) returned an IC50 against Tryptase of 450 nM. The inhibition in test [2] came out at 63%.
On the same counts, the results for `O=C(O)C1[C@@H](CC2CCNCC2)C(=O)N1C(=O)N1CCN(C(=O)c2ccccc2Oc2ccccc2)CC1` (single isomer, unassigned) are 120 nM and 2%.
`O=C(O)C1[C@@H](CC2CCNCC2)C(=O)N1C(=O)N1CCN(C(=O)c2ccc3ccccc3n2)CC1` (single isomer, unassigned) showed an IC50 against Tryptase of 110 nM. In test [2], this compound yielded an inhibition of 51%.
`O=C(O)C1[C@@H](CC2CCNCC2)C(=O)N1C(=O)N1CCN(C(=O)Cc2ccc3ccccc3c2)CC1` (single isomer, unassigned) displayed an IC50 at Tryptase of 70 nM. Moreover, the inhibition in test [2] was 22%.
Take `O=C(O)C1[C@@H](CC2CCNCC2)C(=O)N1C(=O)N1CCN(C(=O)Cc2ccc(CCCc3ccccc3)cc2)CC1` (single isomer, unassigned): the IC50 against Tryptase was found to be 9 nM; on Serine protease 1 [1], 1580 nM.
Turning to `O=C(O)C1[C@@H](CC2CCNCC2)C(=O)N1C(=O)N1CCN(C(=O)CCCCCc2cccc3ccccc23)CC1` (single isomer, unassigned), the IC50 on Tryptase came out at 1 nM; against Serine protease 1 [1], 240 nM.
Consider `CCCCCCc1ccc(-c2ccc(C(=O)N3CCN(C(=O)N4C(=O)[C@H](CC5CCNCC5)C4C(=O)O)CC3)cc2)cc1` (single isomer, unassigned), for which the IC50 on Tryptase is 120 nM; on Serine protease 1 [1], 1200 nM.
On the same counts, the results for `O=C(O)C1[C@@H](CC2CCNCC2)C(=O)N1C(=O)N1CCN(C(=O)CCCCCCc2cccc3ccccc23)CC1` (single isomer, unassigned) are 1 nM and 320 nM.
On the same counts, the results for `O=C(O)C1[C@@H](CC2CCNCC2)C(=O)N1C(=O)N1CCN(C(=O)c2ccc(-c3ccccc3)cc2)CC1` (single isomer, unassigned) are 6 nM and 120 nM.
On Tryptase, `O=C(O)C1[C@@H](CC2CCNCC2)C(=O)N1C(=O)N1CCN(C(=O)c2ccc(C3CCCCC3)cc2)CC1` (single isomer, unassigned) returned an IC50 of 40 nM. Further, in test [2], the inhibition was 76%.
For `O=C(O)C1[C@@H](CC2CCNCC2)C(=O)N1C(=O)N1CCN(C(=O)Cc2ccc3c(c2)OCO3)CC1` (single isomer, unassigned) the same measures were 55 nM and 19%.
For `O=C(O)C1[C@@H](CC2CCNCC2)C(=O)N1C(=O)N1CCN(C(=O)c2ccc3ccccc3c2)CC1` (single isomer, unassigned), the inhibition in test [2] stood at 72%.
